“And” between values parts separate entries of the source, which are not always exact repeats. Equal values may be shown once.
Tested on: 616215-338-R-J1-PDC tumor spheroids, viability
Test: Anticancer human tumor 616215-338-R-J1-PDC patient-derived colon adenocarcinoma cell line growth inhibition [GQUAD]
Conditions: spheroids with HUVEC and MSC; for viability, T/C: stronger effect = lower value
From the text: DNA G-quadruplex Stabilizer Agents in Combinations in Complex Spheroids
A high-throughput screen of multi-cell type tumor spheroids was designed to identify active combinations of DNA G-quadruplex stabilizer agents and targeted small molecules. Complex spheroids include a stromal component modeled by human endothelial cells (HUVEC) and fibroblasts modeled by human mesenchymal stem cells (MSCs). The concentration ranges selected for each drug and investigational agent were based upon clinically achievable concentrations if the clinical Cmax of the agent was known.
Compounds. The drugs and investigational agents: pidnarulex (CX-5461; NSC782164), APTO-253 (NSC789042), BRACO-19 (NSC847499), peposertib (NSC802822), ceralasertib (NSC780249), elimusertib (NSC800525), camonsertib (NSC841442), AZD-1390 (NSC803789), olaparib (NSC753686), talazoparib (NSC767125), ART-558 (NSC835418), sotorasib (NSC818433), MRTX-1133 (NSC836407), SN-38 (NSC673596), topotecan (NSC609699), etoposide (NSC141540), doxorubicin (NSC123127), gemcitabine (NSC613327), 5-fluorouracil (NSC19893), paclitaxel (NSC125973), vemurafenib (NSC761431), panobinostat (NSC761190), R-306465 (JNJ-16241199; NSC773264), adavosertib (NSC754352), TP-3654 (NSC805149), carboplatin (NSC241240), KSQ-4279 (NSC840948), and staurosporine (NSC755774) were obtained from the National Cancer Institute (NCI) Developmental Therapeutics Program Chemical Repository (34). The FDA-approved anticancer drug set is available from the NCI Developmental Therapeutics Program. […] The stock solutions were prepared in dimethyl sulfoxide (DMSO, Sigma-Aldrich, St. Louis, MO, cat. D2650) at 800-fold the tested concentration and stored at -70 degrees C prior to their use. All drugs and investigational agents were tested over a range starting from a high concentration at or near the clinical Cmax and decreasing in half-log increments. If the clinical Cmax for an agent had not been determined, the highest concentration tested was 10 microM.
2.3 Cell Culture. All cells were maintained in an incubator at 37 degrees C and 5% CO2 with 95% humidity. The PDC lines were cultured according to standard operating procedures established by the NCI PDMR. All PDCs were thawed and cultured in Matrigel-coated flasks prepared with a working solution of 1X Ham's F-12 nutrient mix, without supplementation (Invitrogen, cat. 11765054), 100 U/mL penicillin-streptomycin (Invitrogen, cat. 15140122), and 2.5% Matrigel (Corning Inc., cat. 354248) for the first three passages. The 857933-349-R-J2-PDC line was cultured in 6C/Colon 1B media, which includes advanced DMEM/F-12 (Thermo Fisher Scientific, cat. 12634028), 10 mM HEPES (Thermo Fisher Scientific, cat. 15630080), 1X GlutaMAX supplement (Thermo Fisher Scientific, cat. 35050061), 0.1 mg/mL primocin (InvivoGen, cat. ant-pm-2), 10% defined fetal bovine serum, heat inactivated (HyClone Laboratories Inc., cat. SH30070.03HI), 50% L-WRN conditioned media (ATCC, cat. CRL-3276), 1.25 mM N-Acetyl-L-cysteine (Sigma-Aldrich, cat. A9165), 10 mM nicotinamide (Sigma-Aldrich, cat. N0636), 1X B-27 supplement (Thermo Fisher Scientific, cat. 17504044), 1X N-2 supplement (Thermo Fisher Scientific, cat. 17502048), 10 microM Y-27632 dihydrochloride (Tocris Bioscience, cat. 1254), and 50 ng/mL human EGF recombinant protein (Thermo Fisher Scientific, cat. PHG0311). The 485176-168-R4-J1-PDC line was cultured in Panc media, which includes all 6C/Colon 1B media components plus 100 ng/mL human FGF-10 (Thermo Fisher Scientific, cat. 100-26), 500 nM SB-431542 (Selleckchem, cat. S1067), and gastrin (Tocris, cat. 3006).
[…]
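Also: spheroids exposed to agents for 7 days before readout.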
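For viability, T/C in this document: percent viability relative to DMSO vehicle control wells taken as 100%.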

SMILES: CC(C)(O)C1CCC(Nc2ccc3ncc(-c4cccc(C(F)(F)F)c4)n3n2)CC1 (centres undefined)
- viability, T/C (compound 0.0316 µM): 103% and 105% (2×)
- viability, T/C (compound 0.1 µM): 92.2% and 90.8% and 100%
- viability, T/C (compound 0.316 µM): 108% and 95.6% and 93.2%
- viability, T/C (compound 1 µM): 16.1% and 27.9% and 33.8%
- viability, T/C (compound 3.16 µM): 0.52% and 1.27% and 3.2%
- viability, T/C (compound 10 µM): 12.4% and 1.83% and 2.83%
- IC50 (curve of compound): 0.631 µM and 0.686 µM and 0.729 µM

SMILES: O=c1[nH]cc(F)c(=O)[nH]1
- viability, T/C (compound 0.0316 µM): 108% and 102% and 111%
- viability, T/C (compound 0.1 µM): 94.5% and 99.6% and 87%
- viability, T/C (compound 0.316 µM): 68.3% and 78.9% and 59.7%
- viability, T/C (compound 1 µM): 40.8% and 52.1% and 38%
- viability, T/C (compound 3.16 µM): 39.3% and 43.9% and 33.4%
- viability, T/C (compound 10 µM): 38.3% and 41.7% and 35.4%
- IC50 (curve of compound): 0.729 µM and 1.28 µM and 0.523 µM

SMILES: CC1COCCN1c1cc(C2(S(C)(=N)=O)CC2)nc(-c2ccnc3[nH]ccc23)n1 (centres undefined)
- viability, T/C (compound 0.0316 µM): 112% and 99% and 92.8%
- viability, T/C (compound 0.1 µM): 102% and 101% and 90.8%
- viability, T/C (compound 0.316 µM): 122% and 95% and 90%
- viability, T/C (compound 1 µM): 94.4% and 94.6% and 92.2%
- viability, T/C (compound 3.16 µM): 72.2% and 51.3% and 62.8%
- viability, T/C (compound 10 µM): 36% and 28.3% and 34.5%
- IC50 (curve of compound): 6.34 µM and 3.38 µM and 5.33 µM

SMILES: Nc1ccn(C2OC(CO)C(O)C2(F)F)c(=O)n1 (centres undefined)
- viability, T/C (compound 0.0316 µM): 53.3% and 42.5% and 53%
- viability, T/C (compound 0.1 µM): 21.3% and 23.8% and 25.2%
- viability, T/C (compound 0.316 µM): 16.9% and 9.13% and 18.7%
- viability, T/C (compound 1 µM): 17.8% and 10.8% and 15.7%
- viability, T/C (compound 3.16 µM): 14% and 12.8% and 17.5%
- viability, T/C (compound 10 µM): 17.1% and 11.2% and 17.3%
- IC50 (curve of compound): 0.0356 µM and < 0.0316 µM and 0.0358 µM

SMILES: O=C(NO)c1cnc(N2CCN(S(=O)(=O)c3ccc4ccccc4c3)CC2)nc1 + Cc1cnc(CNC(=O)c2c(=O)c3ccc(N4CCCN(C)CC4)nc3n3c2sc2ccccc23)cn1
- IC50 (curve of first compound, second compound 0.0316 µM): 0.501 µM
- IC50 (curve of first compound, second compound 0.1 µM): 0.147 µM
- IC50 (curve of first compound, second compound 0.316 µM): < 0.0316 µM
- IC50 (curve of first compound, second compound 1 µM): < 0.0316 µM
- IC50 (curve of first compound, second compound 3.16 µM): < 0.0316 µM
- IC50 (curve of first compound, second compound 10 µM): < 0.0316 µM
- viability, T/C (second compound 0.0316 µM, first compound 0.0316 µM): 101%
- viability, T/C (second compound 0.0316 µM, first compound 0.1 µM): 96.1%
- viability, T/C (second compound 0.0316 µM, first compound 0.316 µM): 79.9%
- viability, T/C (second compound 0.0316 µM, first compound 1 µM): 5.15%
- viability, T/C (second compound 0.0316 µM, first compound 3.16 µM): 0.03%
- viability, T/C (second compound 0.0316 µM, first compound 10 µM): 0.07%
- viability, T/C (second compound 0.1 µM, first compound 0.0316 µM): 54.1%
- viability, T/C (second compound 0.1 µM, first compound 0.1 µM): 66.6%
- viability, T/C (second compound 0.1 µM, first compound 0.316 µM): 29.4%
- viability, T/C (second compound 0.1 µM, first compound 1 µM): 0.37%
- viability, T/C (second compound 0.1 µM, first compound 3.16 µM): 0.03%
- viability, T/C (second compound 0.1 µM, first compound 10 µM): 0.07%
- viability, T/C (second compound 0.316 µM, first compound 0.0316 µM): 37.2%
- viability, T/C (second compound 0.316 µM, first compound 0.1 µM): 41.2%
- viability, T/C (second compound 0.316 µM, first compound 0.316 µM): 28.5%
- viability, T/C (second compound 0.316 µM, first compound 1 µM): 0.06%
- viability, T/C (second compound 0.316 µM, first compound 3.16 µM): 0.02%
- viability, T/C (second compound 0.316 µM, first compound 10 µM): 0.06%
- viability, T/C (second compound 1 µM, first compound 0.0316 µM): 24.7%
- viability, T/C (second compound 1 µM, first compound 0.1 µM): 24.8%
- viability, T/C (second compound 1 µM, first compound 0.316 µM): 35.1%
- viability, T/C (second compound 1 µM, first compound 1 µM): 0.04%
- viability, T/C (second compound 1 µM, first compound 3.16 µM): 0.03%
- viability, T/C (second compound 1 µM, first compound 10 µM): 0.08%
- viability, T/C (second compound 3.16 µM, first compound 0.0316 µM): 21.9%
- viability, T/C (second compound 3.16 µM, first compound 0.1 µM): 34.8%
- viability, T/C (second compound 3.16 µM, first compound 0.316 µM): 0.18%
- viability, T/C (second compound 3.16 µM, first compound 1 µM): 0.07%
- viability, T/C (second compound 3.16 µM, first compound 3.16 µM): 0.07%
- viability, T/C (second compound 3.16 µM, first compound 10 µM): 0.09%
- viability, T/C (second compound 10 µM, first compound 0.0316 µM): 12.2%
- viability, T/C (second compound 10 µM, first compound 0.1 µM): 16%
- viability, T/C (second compound 10 µM, first compound 0.316 µM): 0.15%
- viability, T/C (second compound 10 µM, first compound 1 µM): 0.14%
- viability, T/C (second compound 10 µM, first compound 3.16 µM): 0.16%
- viability, T/C (second compound 10 µM, first compound 10 µM): 0.17%

SMILES: CC(=O)O[C@H]1C(=O)[C@@]2(C)[C@H]([C@H](OC(=O)c3ccccc3)[C@]3(O)C[C@H](OC(=O)[C@H](O)[C@@H](NC(=O)c4ccccc4)c4ccccc4)C(C)=C1C3(C)C)[C@]1(OC(C)=O)CO[C@@H]1C[C@@H]2O
- viability, T/C (compound 0.0316 µM): 18.6% and 23.3% and 49.7%
- viability, T/C (compound 0.1 µM): 15.1% and 16.7% and 22.2%
- viability, T/C (compound 0.316 µM): 14.9% and 20% and 21.1%
- viability, T/C (compound 1 µM): 18% and 14.6% and 17.4%
- viability, T/C (compound 3.16 µM): 13.8% and 14.9% and 15.3%
- viability, T/C (compound 10 µM): 13.3% and 15.2% and 14.8%
- IC50 (curve of compound): < 0.0316 µM

SMILES: Cc1[nH]c2ccccc2c1CCNCc1ccc(/C=C/C(=O)NO)cc1
- viability, T/C (compound 0.000999 µM): 103% and 102% and 97.5%
- viability, T/C (compound 0.00316 µM): 95.9% and 93.8% and 101%
- viability, T/C (compound 0.00999 µM): 92.1% and 107% and 103%
- viability, T/C (compound 0.0316 µM): 108% and 94.3% and 87.4%
- viability, T/C (compound 0.0999 µM): 69.3% and 72.3% and 79.7%
- viability, T/C (compound 0.316 µM): 17.6% and 10.8% and 27.7%
- IC50 (curve of compound): 0.154 µM and 0.151 µM and 0.189 µM
